Results taken from ChEMBL document CHEMBL3991601, “The target landscape of clinical kinase drugs” (Science, 2017).
The source made the active and inactive calls.

Key:
[1] = target: T1, Tyrosine--tRNA ligase, cytoplasmic (Homo sapiens, UniProt P54577)
T1 sequence (P54577 whole entry): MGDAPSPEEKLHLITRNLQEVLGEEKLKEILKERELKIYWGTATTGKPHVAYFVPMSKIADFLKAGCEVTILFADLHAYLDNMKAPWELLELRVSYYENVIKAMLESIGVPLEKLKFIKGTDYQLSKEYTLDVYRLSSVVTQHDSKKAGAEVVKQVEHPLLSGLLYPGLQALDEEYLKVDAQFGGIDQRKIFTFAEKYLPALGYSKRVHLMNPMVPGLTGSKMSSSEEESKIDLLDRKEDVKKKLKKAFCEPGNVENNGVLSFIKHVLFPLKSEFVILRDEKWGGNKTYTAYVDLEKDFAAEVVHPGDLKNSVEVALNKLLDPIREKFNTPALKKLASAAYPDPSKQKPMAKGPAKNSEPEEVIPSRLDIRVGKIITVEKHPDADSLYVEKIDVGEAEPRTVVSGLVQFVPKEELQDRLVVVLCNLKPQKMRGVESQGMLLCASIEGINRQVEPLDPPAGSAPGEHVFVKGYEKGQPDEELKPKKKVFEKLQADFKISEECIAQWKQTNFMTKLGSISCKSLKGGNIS

[2] = target: Mitogen-activated protein kinase 11 (Homo sapiens, UniProt Q15759)
Sequence of Mitogen-activated protein kinase 11 (Q15759 whole entry): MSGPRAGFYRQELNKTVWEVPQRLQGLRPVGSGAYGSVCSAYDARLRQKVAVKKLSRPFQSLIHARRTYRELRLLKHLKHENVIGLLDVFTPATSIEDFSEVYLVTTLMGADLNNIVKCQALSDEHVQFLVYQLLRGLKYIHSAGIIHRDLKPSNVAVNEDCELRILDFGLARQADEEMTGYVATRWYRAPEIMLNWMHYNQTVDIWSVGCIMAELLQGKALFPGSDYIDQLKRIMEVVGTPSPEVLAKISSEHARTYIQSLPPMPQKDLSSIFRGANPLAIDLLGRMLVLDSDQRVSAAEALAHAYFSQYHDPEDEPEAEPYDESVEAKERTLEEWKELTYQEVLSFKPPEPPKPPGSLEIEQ

[3] = target: RAC-alpha serine/threonine-protein kinase (Homo sapiens, UniProt P31749)
Sequence of RAC-alpha serine/threonine-protein kinase (P31749 whole entry): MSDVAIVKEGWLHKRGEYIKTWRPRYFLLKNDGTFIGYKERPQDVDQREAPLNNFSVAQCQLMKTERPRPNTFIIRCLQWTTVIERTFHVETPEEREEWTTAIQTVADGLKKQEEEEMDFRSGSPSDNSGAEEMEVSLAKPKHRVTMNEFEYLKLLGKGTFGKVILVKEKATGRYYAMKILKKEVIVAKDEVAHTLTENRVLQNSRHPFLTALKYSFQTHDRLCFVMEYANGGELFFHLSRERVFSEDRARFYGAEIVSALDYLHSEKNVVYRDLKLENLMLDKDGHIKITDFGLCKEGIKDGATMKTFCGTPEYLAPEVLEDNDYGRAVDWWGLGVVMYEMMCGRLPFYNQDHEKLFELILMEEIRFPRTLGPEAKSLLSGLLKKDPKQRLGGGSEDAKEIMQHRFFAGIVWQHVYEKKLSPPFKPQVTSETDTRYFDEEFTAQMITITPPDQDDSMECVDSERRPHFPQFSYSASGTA

[4] = target: T2, Succinate--CoA ligase [ADP-forming] subunit beta, mitochondrial (Homo sapiens, UniProt Q9P2R7)
T2 sequence (Q9P2R7 whole entry): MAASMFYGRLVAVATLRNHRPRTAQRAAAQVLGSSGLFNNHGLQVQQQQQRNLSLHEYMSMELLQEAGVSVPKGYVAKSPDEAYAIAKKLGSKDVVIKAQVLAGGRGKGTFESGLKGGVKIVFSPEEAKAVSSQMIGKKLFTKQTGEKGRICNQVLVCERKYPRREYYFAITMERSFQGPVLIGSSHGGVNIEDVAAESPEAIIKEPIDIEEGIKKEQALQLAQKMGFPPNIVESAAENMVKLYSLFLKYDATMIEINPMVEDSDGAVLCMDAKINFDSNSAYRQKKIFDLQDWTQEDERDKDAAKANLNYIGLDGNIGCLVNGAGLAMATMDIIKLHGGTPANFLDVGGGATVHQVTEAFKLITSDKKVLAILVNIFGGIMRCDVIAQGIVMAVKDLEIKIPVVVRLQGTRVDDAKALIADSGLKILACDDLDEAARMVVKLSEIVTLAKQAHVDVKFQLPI

[5] = target: Epithelial discoidin domain-containing receptor 1 (Homo sapiens, UniProt Q08345)
Sequence of Epithelial discoidin domain-containing receptor 1 (Q08345 whole entry, the tested form may be a part): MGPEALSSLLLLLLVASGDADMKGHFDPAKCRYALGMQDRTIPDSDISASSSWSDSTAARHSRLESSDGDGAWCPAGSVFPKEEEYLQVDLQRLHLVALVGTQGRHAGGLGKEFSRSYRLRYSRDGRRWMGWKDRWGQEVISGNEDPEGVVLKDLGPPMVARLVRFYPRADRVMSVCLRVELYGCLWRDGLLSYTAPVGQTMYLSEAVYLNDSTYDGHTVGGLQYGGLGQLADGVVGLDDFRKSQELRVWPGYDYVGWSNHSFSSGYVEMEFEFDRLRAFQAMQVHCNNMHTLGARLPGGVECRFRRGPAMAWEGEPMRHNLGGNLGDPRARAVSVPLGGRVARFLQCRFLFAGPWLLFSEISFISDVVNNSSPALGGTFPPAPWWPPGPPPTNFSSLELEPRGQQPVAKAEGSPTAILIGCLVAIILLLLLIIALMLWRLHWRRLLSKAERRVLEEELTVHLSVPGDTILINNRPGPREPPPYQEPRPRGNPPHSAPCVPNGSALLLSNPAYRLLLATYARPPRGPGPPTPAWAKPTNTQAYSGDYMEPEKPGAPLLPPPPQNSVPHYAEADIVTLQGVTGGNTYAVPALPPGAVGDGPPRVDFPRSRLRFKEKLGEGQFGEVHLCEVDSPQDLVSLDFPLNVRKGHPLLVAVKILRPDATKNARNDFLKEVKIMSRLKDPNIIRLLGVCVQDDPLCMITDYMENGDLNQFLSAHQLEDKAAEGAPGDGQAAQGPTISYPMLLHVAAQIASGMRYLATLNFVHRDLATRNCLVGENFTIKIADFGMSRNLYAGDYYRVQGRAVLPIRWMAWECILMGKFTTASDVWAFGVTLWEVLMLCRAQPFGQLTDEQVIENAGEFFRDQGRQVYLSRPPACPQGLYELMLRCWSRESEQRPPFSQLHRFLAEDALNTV

Heme oxygenase 2 = target: T3, Heme oxygenase 2 (Homo sapiens, UniProt P30519)
T3 sequence (P30519 whole entry): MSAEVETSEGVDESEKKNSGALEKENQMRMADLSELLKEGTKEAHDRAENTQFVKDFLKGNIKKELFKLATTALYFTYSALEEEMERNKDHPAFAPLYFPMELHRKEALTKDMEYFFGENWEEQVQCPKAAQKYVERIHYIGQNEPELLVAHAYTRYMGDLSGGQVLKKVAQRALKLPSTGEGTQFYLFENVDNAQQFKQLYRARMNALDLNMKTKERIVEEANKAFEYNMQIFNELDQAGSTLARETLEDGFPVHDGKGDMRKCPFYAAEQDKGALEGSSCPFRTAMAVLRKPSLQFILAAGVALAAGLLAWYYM

[6] = target: T4, Serine/threonine-protein kinase ULK1 (Homo sapiens, UniProt O75385)
T4 sequence (O75385 whole entry): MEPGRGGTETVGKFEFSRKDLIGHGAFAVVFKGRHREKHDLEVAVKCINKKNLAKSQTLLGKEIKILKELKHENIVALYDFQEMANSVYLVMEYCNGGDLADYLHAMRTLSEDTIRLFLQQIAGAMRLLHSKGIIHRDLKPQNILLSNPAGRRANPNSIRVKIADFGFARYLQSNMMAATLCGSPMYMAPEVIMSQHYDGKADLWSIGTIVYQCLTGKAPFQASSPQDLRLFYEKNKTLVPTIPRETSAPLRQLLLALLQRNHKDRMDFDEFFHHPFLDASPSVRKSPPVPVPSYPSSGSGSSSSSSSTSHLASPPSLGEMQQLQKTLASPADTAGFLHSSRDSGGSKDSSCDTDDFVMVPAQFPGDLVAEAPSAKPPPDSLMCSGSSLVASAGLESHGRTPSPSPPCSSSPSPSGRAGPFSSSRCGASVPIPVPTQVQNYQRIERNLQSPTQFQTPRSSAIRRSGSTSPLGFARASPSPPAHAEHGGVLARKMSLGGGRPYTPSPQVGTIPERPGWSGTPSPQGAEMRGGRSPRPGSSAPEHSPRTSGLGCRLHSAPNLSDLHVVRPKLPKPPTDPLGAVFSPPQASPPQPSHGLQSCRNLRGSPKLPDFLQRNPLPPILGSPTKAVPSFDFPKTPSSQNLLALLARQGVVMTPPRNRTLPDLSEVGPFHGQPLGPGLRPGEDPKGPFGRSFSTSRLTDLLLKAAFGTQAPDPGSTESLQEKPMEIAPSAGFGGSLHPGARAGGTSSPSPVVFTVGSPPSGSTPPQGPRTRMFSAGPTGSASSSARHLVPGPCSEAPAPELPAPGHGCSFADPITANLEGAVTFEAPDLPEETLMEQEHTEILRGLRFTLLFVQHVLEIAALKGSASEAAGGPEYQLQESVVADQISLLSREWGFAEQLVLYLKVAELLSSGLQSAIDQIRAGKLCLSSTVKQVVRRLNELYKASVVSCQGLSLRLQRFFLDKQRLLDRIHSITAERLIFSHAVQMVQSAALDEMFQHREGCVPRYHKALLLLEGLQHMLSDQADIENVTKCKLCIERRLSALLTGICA
Also: in the data inactive means no Kd found up to 30 µM.

Row | Compound | Kd [1] | Kd [2] | Kd [3] | Kd [4] | Kd [5] | Kd (Heme oxygenase 2) | Kd [6]
1 | CN1CCC(COc2cnc(-c3cccc(Cn4nc(-c5cccc(C#N)c5)ccc4=O)c3)nc2)CC1 [TEPOTINIB] | > 30 µM (inactive) | > 30 µM (inactive) | > 30 µM (inactive) | > 30 µM (inactive) | > 30 µM (inactive) | > 30 µM (inactive) | > 30 µM (inactive)
2 | CN1N=C(N)c2cn([C@@H]3O[C@H](COP(=O)(O)O)[C@@H](O)[C@H]3O)c3ncnc1c23 [TRICIRIBINE PHOSPHATE] | > 30 µM (inactive) | > 30 µM (inactive) | > 30 µM (inactive) | > 30 µM (inactive) | > 30 µM (inactive) | > 30 µM (inactive) | > 30 µM (inactive)
3 | COC(=O)[C@@]1(O)C[C@H]2O[C@]1(C)n1c3ccccc3c3c4c(c5c6ccccc6n2c5c31)C(=O)NC4 [K-252A] | > 30 µM (inactive) | > 30 µM (inactive) | > 30 µM (inactive) | > 30 µM (inactive) | > 30 µM (inactive) | > 30 µM (inactive) | > 30 µM (inactive)
4 | CCS(=O)(=O)N1CC(CC#N)(n2cc(-c3ncnc4[nH]ccc34)cn2)C1 [BARICITINIB] | > 30 µM (inactive) | > 30 µM (inactive) | > 30 µM (inactive) | > 30 µM (inactive) | > 30 µM (inactive) | > 30 µM (inactive) | 0.81 µM (active)
5 | Cc1cc(-c2cc(O)ccc2Cl)cc2nnc(Nc3ccc(OCCN4CCCC4)cc3)nc12 | > 30 µM (inactive) | > 30 µM (inactive) | > 30 µM (inactive) | > 30 µM (inactive) | 0.003 µM (active) | > 30 µM (inactive) | > 30 µM (inactive)

Next, values leading:

Row | Kd [1] | Kd [2] | Kd [3] | Kd [4] | Kd [5] | Kd (Heme oxygenase 2) | Kd [6] | Compound
6 | > 30 µM (inactive) | > 30 µM (inactive) | > 30 µM (inactive) | > 30 µM (inactive) | > 30 µM (inactive) | > 30 µM (inactive) | > 30 µM (inactive) | CC[C@@H]1C(=O)N(C)c2cnc(Nc3ccc(C(=O)N[C@H]4CC[C@H](N5CCN(CC6CC6)CC5)CC4)cc3OC)nc2N1C(C)C [VOLASERTIB]
7 | > 30 µM (inactive) | > 30 µM (inactive) | > 30 µM (inactive) | > 30 µM (inactive) | 1.04 µM (active) | > 30 µM (inactive) | > 30 µM (inactive) | Cc1cc2c(F)c(Oc3ncnn4cc(OC[C@@H](C)OC(=O)[C@H](C)N)c(C)c34)ccc2[nH]1 [BRIVANIB ALANINATE]
8 | > 30 µM (inactive) | > 30 µM (inactive) | > 30 µM (inactive) | > 30 µM (inactive) | > 30 µM (inactive) | > 30 µM (inactive) | > 30 µM (inactive) | Cc1cc([C@@H](C)Nc2ccccc2C(=O)O)c2nc(N3CCOCC3)cc(=O)n2c1 [AZD-6482]
